{"source": "patent US11179435B2", "about": "“Hangover alleviating composition containing conjugate of sesamol and peptide as active ingredient” (CAREGEN CO., LTD., priority 2017, dated 2021)", "type_in_all_cases": "cell-based, human", "key": {"ADH4": {"system": "ADH4", "assay": "RT-PCR mRNA expression in HepG2 cells", "settings": "10 μM or 50 μM, 6 hours, compared with untreated control group", "description": "(§1) In order to confirm an effect of increasing the expression of ADH and ALDH involved in the alcohol degradation process, liver carcinoma cells were treated with the two types of conjugates of the sesamol and the peptides prepared in [Preparation Example 2], respectively, and then RT-PCR was performed.\n(§2) Specifically, HepG2 cells were inoculated in a 6-well plate at a density of 4×10^5 cells/well, and then incubated overnight. Thereafter, the two types of conjugates of the sesamol and the peptides prepared in [Preparation Example 2] were treated at a concentration of 10 μM or 50 μM, respectively, and incubated for 6 hours, and the cells were collected. Thereafter, the total RNA was isolated from the collected cells according to a manufacturer's protocol using Trizol (Invitrogen, USA), and then 1 μg of the isolated RNA was synthesized to cDNA according to a manufacturer's protocol using a cDNA synthesis kit (Intron, Korea). The cDNA was subjected to PCR using primers shown in Table 2 below, and then electrophoresed on a 5% agarose gel to confirm mRNA expression levels of ADH4, ALDH1, and ALDH2."}, "ALDH1": {"system": "ALDH1", "assay": "RT-PCR mRNA expression in HepG2 cells", "settings": "10 μM or 50 μM, 6 hours, compared with untreated control group", "description": "as §1, §2"}, "ALDH2": {"system": "ALDH2", "assay": "RT-PCR mRNA expression in HepG2 cells", "settings": "10 μM or 50 μM, 6 hours, compared with untreated control group", "description": "as §1, §2"}, "[1]": {"system": "aldehyde dehydrogenase (ALDH)", "assay": "ALDH activity assay in HepG2 cells treated with conjugate", "settings": "50 μM or 100 μM, 24 hours, compared to untreated control group", "description": "Alcohol was converted to acetaldehyde by alcohol dehydrogenase (ADH), an alcohol degrading enzyme, and the converted acetaldehyde was converted and degraded to acetate by aldehyde dehydrogenase (ALDH). Therefore, in order to confirm the effect of increasing the activity of ALDH involved in the alcohol degradation process, liver carcinoma cells were treated with the two types of conjugates of the sesamol and the peptides prepared in [Preparation Example 2], respectively, and then the ALDH activity assay was performed.\nSpecifically, liver hepatocellular carcinoma (HepG2) cells, which were human liver carcinoma cells, were inoculated into a 6-well plate at a density of 4×10^5 cells/well and then incubated overnight. Thereafter, the two types of conjugates of the sesamol and the peptides prepared in [Preparation Example 2] were treated at a concentration of 50 μM or 100 μM, respectively, and incubated for 24 hours, and the cells were collected and then the ALDH activity was analyzed using an ALDH activity assay kit (abcam, ab155893). Meanwhile, a positive control group was treated with 5 μM sulfolaphane.\nFor the ALDH activity assay, each of the collected cells was treated with an ALDH activity assay buffer included in the kit, and then lysed with a homogenizer under ice. […] Thereafter, the ALDH activity was calculated using the following [Equation 1]. […]"}}, "note": "Starred links: 1 amine or outer side, 2 acyl side, 3 side chain; linkers in the order of their positions; H or OH if unused. No end group written: not given here. Suc = O=C(CCC(=O)[*:2])[*:1]"}
{"substance": "SEQ ID NO: 1: Sesamol linked via succinyl linker to the N-terminus of peptide SIPCKLQSG (SEQ ID NO: 1) ({sesamol-Suc}-SIPCKLQSG)", "values": [{"measurement": "mRNA expression of ADH4", "setting": "ADH4", "result": "significantly increased"}, {"measurement": "mRNA expression of ALDH1", "setting": "ALDH1", "result": "significantly increased"}, {"measurement": "mRNA expression of ALDH2", "setting": "ALDH2", "result": "significantly increased"}, {"measurement": "ALDH activity", "setting": "[1]", "result": "increased in a concentration-dependent manner"}]}
